# Experimental data reported in US10722528B2, “Compositions and methods for inhibiting metastasis” (Augusta University Research Institute, Inc., priority 2018, dated 2020).
# How the values were obtained:
# [1] = system: EMT6 cells co-cultured with mMDSCs; assay: EMT6 cells co-cultured with mMDSCs and NOS2 inhibitor 1400W (qPCR, Western blot); assay type: cell-based, mouse
# Experimental: (§1) FIGS. 5A-5D are bar graphs showing expression of IL6 (FIG. 5A), IL1A (FIG. 5B), TGFB (FIG. 5C), and Vimentin (FIG. 5D) in EMT6 cells (white bars), EMT6 cells+0.5 mM DPTA (gray bars), and EMT6 cells+2.5 mM DPTA (black bars). FIG. 5E-5H are bar graphs showing expression of IL6 (FIG. 5E), IL1A (FIG. 5F), TGFB (FIG. 5G), and Vimentin (FIG. 5H) in EMT6 cells (white bars), EMT6 cells+mMDSCs (gray bars), and EMT6 cells+mMDSCs/1400W (black bar). FIG. 5I is a representative Western blot showing pSTAT3, STAT3, pSTAT1, STAT1, Vimentin, Twist, and actin expression in untreated EMT6 cell, or EMT6 cells treated with 0.5 mM or 2.5 mM DPTA, mMDSCs, or mMDSCs+1400W.
# (§2) For RT-PCR analyses, KiCqStart SYBR Green predesigned primers (Sigma) were used for the following genes: […]
# (§3) The relative fold change was measured by 2-ΔΔCt formula compared to the control cells. Means and differences of the means with 95% confidence intervals were obtained using GraphPad Prism (GraphPad Software Inc.). Two-tailed Student's t-test was used for unpaired analysis comparing average expression between conditions. P values<0.05 were considered statistically significant.
# EMT6 cells = system: EMT6 cells
# Experimental: as §1, §2, §3
# [2] = system: gMDSC differentiation in bone marrow cells; assay: In vitro screening of gMDSC differentiation in bone marrow cells (GM-CSF/G-CSF, flow cytometry); assay type: cell-based, mouse; details: GM-CSF, 3 days, flow cytometry (Ly6c+Ly6g+CD11b+)
# Experimental: BALB/c mice were euthanized by CO2 asphyxiation. The femur bones were carefully resected under sterile conditions, cleaned to remove the attached muscle/tissue, and cleaned with 70% ethanol. The bones were then transferred on to a sterile Petri dish with culture medium Roswell Park Memorial Institute (RPMI)-1640. Both ends of femurs were carefully trimmed using sterile, sharp scissors to expose the interior marrow shaft. The contents of marrow were flushed with 2-4 ml of culture medium (RPMI-1640 supplemented with 10% FBS) using 1-ml insulin syringe with a 29G×½ needle. Later, the bone marrow was flushed out onto a 70 μm nylon cell strainer placed in a 50 ml Falcon conical tube (The bones should appear white once all the marrow has been expelled out completely). The collected BM cell suspension was further diluted with 20 ml of phosphate buffer saline (PBS), and the cell suspension was centrifuged at 1,000 rpm […]. The supernatant and the cell pellet were collected using red blood cell (RBC) lysis buffer and incubated for 5 minutes. 5-10 mL of PBS was added, and the solution was centrifuged at 1,000 rpm for 5 minutes. The supernatant was discarded and the cell pellet was washed with PBS, and re-centrifuged at 1,000 rpm for 5 minutes. The cells were re-suspended with RPMI medium containing 10% FBS and used for assays or culture.
# Computational screening of certain select NCI chemical library was performed again the crystal structure of calprotectin. 40 lead compounds were identified with potential to bind to calprotectin and suppress gMDSC differentiation. In vitro screening using the 40 lead compounds was performed. Bone marrow cells were counted using hemocytometer or Beckman Z2 coulter counter and suspended in culture medium (RPMI 1640+10% FBS+1% penicillin/streptomycin) to achieve a final cell density of 2×10^6 BM cells/well. T20 ng/mL of recombinant mouse GM-CSF (Granulocyte Macrophage—Colony Stimulating Factor Protein) was added followed by 50 ng/mL G-CSF or individual selected drug. […]
# [3] = system: MDSC-related genes in bone marrow cells; assay: Expression of MDSC-related genes in bone marrow cells treated with GCSF and compound; assay type: cell-based, mouse
# Excerpt: FIG. 13A is a bar graph showing Ly6c+Ly6g+CD11b+gMDSCs differentiation in vitro in bone marrow cells treated with GCSF and the lead NCI compounds identified by computational screen against S100A8/A9 (calprotectin). FIGS. 13B-13K are representative flow cytometry plots showing the expression of CD11b and Ly6C in bone marrow cells treated with compounds 4, 10, 13, and 15. FIGS. 13L-13R are bar graphs showing the expression of MDSC-related genes (S100A8, FIG. 13L; S100A9, FIG. 13M; GCSF, FIG. 13N; IL1A, FIG. 13O; NOS2, FIG. 13P; CYB1, FIG. 13Q; and IL4R, FIG. 13R) in bone marrow cells treated with GCSF (black bars), GCSF+#4 (dark gray bars), GCSF+#10 (light gray bars), or untreated (white bars).
# P values<0.05 were considered statistically significant.
# 4T1 tumor = assay: Metastatic 4T1-injected mice treated with drug #10 (bioluminescence imaging, MDSC infiltration); assay type: in vivo, mouse
# Excerpt: FIG. 14A-14D are bioluminescence images of metastatic 4T1-injected mice untreated or treated with drug #10. FIG. 14E-14H are bar graphs showing the extent of mMDSC infiltration in the primary tumor (FIG. 14H) and the BM (FIG. 14E), spleen (FIG. 14F), and lung (FIG. 14G) of metastatic 4T1-injected mice untreated (black bars) or treated with drug #10 (gray bars). FIG. 14I-14L are bar graphs showing the extent of gMDSC infiltration in the primary tumor (FIG. 14L) and the BM (FIG. 14I), spleen (FIG. 14J), and lung (FIG. 14K) of metastatic 4T1-injected mice untreated (black bars) or treated with drug #10 (gray bars).
# Luciferase expressing 4T1 or EMT6 murine breast cancer cells (50,000 cells per mice) were orthotopically implanted into the fat pads of 5-week-old BALB/c mice. (AT-3 cells in C57BL/J6 mice) and these mice were imaged utilizing the Caliper IVIS imaging systems. To analyse MDSCs, tumor-bearing mice were sacrificed every week and single-cell suspensions were prepared from bone marrows, spleens, lungs and tumor tissues. Bone marrow cells were obtained by flushing bones with PBS using a 28G 1/2 syringe. […]
# These cells were labeled with fluorescence-conjugated Ly6C (#128015-dilution 1/400), Ly6G (#127605-dilution 1/100) and CD11b (#101208-Dilution 1/200) antibodies (Biolegend) and analyzed on a FACS canto flow cytometer (BD Biosciences).
# EMT6-Luc tumor = assay: In vivo gMDSC induction: EMT6-Luc tumor model in BALB/c mice injected with recombinant protein; parameters: species or system mouse; details: for tumor cell killing activity of T cells from treated mice (annexin V+ cells): compared to control treated mice; for levels of caspase 3 mediated apoptosis: treated mice versus saline
# Experimental: (§4) In vivo gMDSC induction: EMT6 tumor model was selected as platform to examine the role of the proteins in regulation gMDSCs and the resultant metastatic cascade. EMT6-Luc cells were implanted into the mammary fat pads of BALB/c mice (purchased from Charles Rivers at NCI). The mice were then injected (via tail vein) either with saline (control), recombinant S100A9 or Calprotectin (100 ng/mouse) every alternate day for three weeks.
# as §4, with “EMT6” for “In vivo gMDSC induction: EMT6”
# T cell proliferation = assay: In vitro suppression: bone marrow cells treated with recombinant protein plus GM-CSF, then co-incubated with activated CFSE labeled T cells; assay type: cell-based, mouse; details: 7 days, then 3 days with activated CFSE labeled T cells
# Experimental: (§5) In vitro suppression: Multigrams of recombinant Calprotectin, S100A8 and S100A9 proteins were isolated, purified and confirmed for their activity with commercially available proteins. Bone marrow cells were treated with recombinant S100A8 (A8), S100A(9) or Calprotectin (CALP) in presence of GM-CSF (Granulocyte Macrophage-Colony Stimulating Factor Protein) in vitro for 7 days for gMDSC differentiation. The cells were then co-mixed and incubated 3 more days with activated CFSE labeled T cells.
# as §5, with “Multigrams” for “In vitro suppression: Multigrams”, “recombinant S10A8” for “recombinant S100A8”, “(Granulocyte Macrophage—Colony” for “(Granulocyte Macrophage-Colony”
# [4] = 100 ng/mouse via tail vein every alternate day for three weeks
molecule,measurement,setting,value
CC(=N)NCc1cccc(CN)c1 [1400 W],activation of pStat1 and pStat3 pathways and EMT markers vimentin and twist (Western blot),[1],suppressed the activation of the latter pathways and EMT markers
same,"mMDSC-induced transcription of IL1A, IL6, TGFB1 and VIM (qPCR)",[1],suppress the mMDSC-induced transcription of these genes
NCCCN(CCCN)/[N+]([O-])=N/O [DPTA],"expression of IL1A, IL6, TGFB1 and VIM (qPCR)",EMT6 cells; 0.5 mM and 2.5 mM DPTA,induced the expressions of indicated genes
same,activation of pStat1 and pStat3 signaling pathways and protein levels of EMT markers vimentin and twist (Western blot),EMT6 cells; 0.5 mM or 2.5 mM DPTA,induced the activation of pStat1 and pStat3 signaling pathways and protein levels of EMT markers
"O=C1c2cccc(Oc3ccccc3)c2C(=O)c2cccc(Oc3ccccc3)c21 [compound 4, 1,5-diphenoxyanthracen-9-10-dione]",inhibition of gMDSC differentiation,[2],significant inhibition of gMDSC differentiation
same,"expression of MDSC-related genes S100A8, S100S9, GCSF, IL1A, NOS2, CYBB1, and IL4R",[3],reduced the expression
"CC12CCC3C(CCC4Cc5[nH]c6ccccc6c5CC43C)C1CCC2O (stereo not shown) [compound 10, 12a,14a-dimethyl-1,2,3,3a,3b,4,5,5a,6,7,12,12a,12b,13,14,14a-hexadecahydrocyclopenta[5,6]naphtho[2,1-b]carbazol-1-ol]",tumor growth and metastasis,4T1 tumor; bioluminescence images,suppresses tumor growth and metastasis
same,gMDSC infiltration into the tumor and distant organ sites,"4T1 tumor; primary tumor, BM, spleen, lung",reduce gMDSC infiltration
same,inhibition of gMDSC differentiation,[2],significant inhibition of gMDSC differentiation
same,"expression of MDSC-related genes S100A8, S100S9, GCSF, IL1A, NOS2, CYBB1, and IL4R",[3],reduced the expression
O=[N+]([O-])C1C(c2ccccc2)C12c1ccccc1-c1ccccc12 (stereo not shown) [compound 27],inhibition of gMDSC differentiation,[2],significant inhibition of gMDSC differentiation
Calprotectin: recombinant complex of the mammalian proteins S100A8 and S100A9,CD8+ T cells,EMT6-Luc tumor; [4],increase in CD8+ T cells
same,primary tumor growth and spontaneous metastasis,EMT6-Luc tumor; [4],enhanced primary tumor growth and spontaneous metastasis to the lungs and liver
same,tumor cell killing activity of T cells from treated mice (annexin V+ cells),EMT6-Luc tumor,significantly suppressed the tumor cell killing activity
same,levels of caspase 3 mediated apoptosis,EMT6-Luc tumor,reduced
same,suppression of T cell proliferation by protein treated gMDSCs,T cell proliferation,suppressed T cell proliferation more efficiently compared to S100A9
"S100A9: recombinant S100A9 protein, subunit of calprotectin",tumor cell killing activity of T cells from treated mice (annexin V+ cells),EMT6-Luc tumor,moderate activity
same,levels of caspase 3 mediated apoptosis,EMT6-Luc tumor,reduced
"S100A8: recombinant S100A8 protein, subunit of calprotectin (protein, UniProt P05109 1-93, looked up) Protein S100-A8: MLTELEKALNSIIDVYHKYSLIKGNFHAVYRDDLKKLLETECPQYIRKKGADVWFKELDINTDGAVNFQEFLILVIKMGVAAHKKSHEESHKE",suppression of T cell proliferation by protein treated gMDSCs,T cell proliferation,no significant effect
